Source: patent US12594285B2, “Compositions and methods for protecting against airborne pathogens and irritants” (APPLIED BIOLOGICAL LABORATORIES, INC., priority 2016, dated 2026)

Experiments:
[1] = test system: Influenza A H1N1 (clinical strain: A/California/7/09); assay: Apical Influenza replication by quantitative RT-PCR (Example 5); type: cell-based; conditions: 3.5, 24 and 48 hours pi; Oseltamivir 10 μM in basal medium
[2] = test system: MucilAir™ 3D model of human airway epithelium infected with Rhinovirus A16; assay: TEER tissue integrity, MucilAir inoculated with Rhinovirus A16 (Example 4); conditions: toxic positive control, 10% Triton X-100, after cell damage
[3] = test system: Human Rhinovirus A16 (clinical strain: QCHRV.16); assay: Apical Rhinovirus replication by quantitative RT-PCR (Example 4); type: cell-based; conditions: 3.5, 24 and 48 hours pi; formulations applied apically at 0, 3.5 and 24 h; Rupintrivir 5 μM in basal medium
[4] = test system: Human Rhinovirus A16 (clinical strain: QCHRV.16); assay: Apical Rhinovirus replication by quantitative RT-PCR (Example 6); type: cell-based; conditions: Example 6; Rupintrivir 5 μM in basal medium; 3.5, 24 and 48 hours pi

Compound: CCOC(=O)C1=C[C@@H](OC(CC)CC)[C@H](NC(C)=O)[C@@H](N)C1 [Oseltamivir]
- Influenza A H1N1 replication (genome copy number, apical washes) [1]: inhibited

Compound: Triton X-100
- TEER [2]: below 100 Ωcm^2

Compound: CCOC(=O)/C=C/[C@H](C[C@@H]1CCNC1=O)NC(=O)[C@@H](CC(=O)[C@@H](NC(=O)c1cc(C)on1)C(C)C)Cc1ccc(F)cc1 [Rupintrivir]
- Rhinovirus A16 replication (genome copy number, apical washes) [3]: inhibited
- Rhinovirus A16 replication (genome copy number, apical washes) [4]: inhibited
